Laboratory results published in US20080113927A1, “Indolopyrrolocarbazole derivatives and anti-tumor agent” (priority 2003, published 2008).

Tests used:
[1] = tested on: Human lung cancer cells LX-1; assay: Anti-tumor effect on LX-1 solid tumor transplanted subcutaneously in nude mice; format: in vivo, nude mice (Balb/c-nu/nu); settings: LX-1 in nude mice
From the text: Method for Determining the Effects of the Agent on Animals
Female nude mice of 5 weeks of age (Balb/c-nu/nu) were obtained from Clea Japan, Inc. Human lung cancer cells LX-1 were obtained from the Japanese Foundation for Cancer Research Institute.
The synthesis of the control compound is described in JP-A No. 10-245390, Example 14.
The cancer cells were transplanted subcutaneously to nude mice so that solid cancer can be maintained. The solid cancer was sliced into 3 mm cubic blocks in physiological saline under ice cooling. One of the blocks was transplanted subcutaneously to a nude mouse to be used in experiment (Day 1). The cancer cells were grown subcutaneously in the mouse to form a tumor mass. The size of the mass was measured with a lapse of time, and when the volume reached 0.2 cm^3 or more (approximation by volume=major axis×minor axis^2÷2), administration of the drug was started. The drug was dissolved in 5% glucose solution and administered intravenously at the tail successively twice a week for 2 weeks (total 4 times). Two weeks after the administration, the percentage (T/C%) of the tumor volume (T) was calculated from the tumor volume (C) in the control group and that (T) in the test group as a tumor volume ratio.

[2] = tested on: MKN-45 (human stomach cancer cells); assay: Cell-growth inhibitory activity against MKN-45 (WST-8 method); format: cell-based; settings: 72 h, MKN-45 cells, 3 days incubation, read-out: 50% tumor growth inhibiting activity (IC50)
Protocol: Method for Determining the Effects of the Agent on Cells
Fetal calf serum (FCS) was obtained from Molgate and the DMEM culture medium from Asahi Technoglass Inc.
Human gastric cancer cell MKN-45 was obtained from the IBL Co., Ltd.
The cells were suspended in 10% FCS-DMEM medium and the suspension was distributed in a 96-well plastic plate in the amount of 1000 cells/50 microliter/well. The plate was incubated at 37° C. in 5% CO2-95% air overnight. Each drug was dissolved in dimethylsulfoxide or a suitable solvent by serial dilution and distributed in the wells at 50 microliters per well in which the cells had been added. The plate was incubated at 37° C. in 5% CO2-95% air for 3 days. The growth of the cultured cells was measured by the WST-8 method (H. Tominaga et al., Anal. Commun., 36, 47-50 (1999)). In the WST-8 method, 10 microliter of WST-8 reagent solution was added, and then incubated at 37° C. for 1 to 6 hours. After stirring the plate, the resulting formazan was quantitatively analyzed by colorimetry to determine the inhibition rate of the drug. Thus, 50% inhibitory concentration (IC50) for the growth was determined for each compound.

| SMILES | Anti-tumor activity against human lung cancer cells compared with the control compound ([1]; comparison from Table 2) | Ratio of tumor volume Treated/Control (%) ([1]; i.v. twice a week for 2 weeks, total dose 1200 mg/m^2, two weeks after the administration) | IC50 [2] [nM] |
| --- | --- | --- | --- |
| O=C1c2c(c3c4ccc(O)cc4n(C4OC(CO)C(O)C(O)C4O)c3c3[nH]c4cc(O)ccc4c23)C(=O)N1NCc1ccncc1 (stereo not shown) [Example 1] | markedly a stronger anti-tumor activity | 1% (1200 mg/m^2) | 0.71 |
| O=C1c2c(c3c4ccc(O)cc4n(C4OC(CO)C(O)C(O)C4O)c3c3[nH]c4cc(O)ccc4c23)C(=O)N1NCc1ccco1 (stereo not shown) [Example 6] | – | – | 5 |
| O=C1c2c(c3c4ccc(O)cc4n(C4OC(CO)C(O)C(O)C4O)c3c3[nH]c4cc(O)ccc4c23)C(=O)N1NCc1ccsc1 (stereo not shown) [Example 7] | – | – | 2.7 |
| O=C1c2c(c3c4ccc(O)cc4n(C4OC(CO)C(O)C(O)C4O)c3c3[nH]c4cc(O)ccc4c23)C(=O)N1NCCCc1cccnc1 (stereo not shown) [Example 4] | – | – | 6.3 |
| O=C1c2c(c3c4ccc(O)cc4n(C4OC(CO)C(O)C(O)C4O)c3c3[nH]c4cc(O)ccc4c23)C(=O)N1NCc1cccs1 (stereo not shown) [Example 8] | – | – | 4.1 |
| O=C1c2c(c3c4ccc(O)cc4n(C4OC(CO)C(O)C(O)C4O)c3c3[nH]c4cc(O)ccc4c23)C(=O)N1NCc1cccnc1 (stereo not shown) [Example 3] | – | – | 0.95 |
| O=C1c2c(c3c4ccc(O)cc4n(C4OC(CO)C(O)C(O)C4O)c3c3[nH]c4cc(O)ccc4c23)C(=O)N1NCc1ccoc1 (stereo not shown) [Example 5] | – | – | 2.8 |
| O=C1c2c(c3c4ccc(O)cc4n(C4OC(CO)C(O)C(O)C4O)c3c3[nH]c4cc(O)ccc4c23)C(=O)N1NCc1ccccn1 (stereo not shown) [Example 2] | – | – | 1.4 |
